This note sets out measurements from ChEMBL document CHEMBL5316341, “The Development and Design Strategy of Leucine-Rich Repeat Kinase 2 Inhibitors: Promising Therapeutic Agents for Parkinson's Disease” (J Med Chem, 2023).

Series [1] addresses T1, Protein cereblon/Leucine-rich repeat serine/threonine-protein kinase 2 (Homo sapiens, UniProt Q5S007+Q96SW2). Put plainly: PROTAC activity at CRBN/wild type HiBit tagged-LRRK in HEK293 cells assessed as LRRK2 degradation by Nano-Glo dual-luciferase reporter assay. It counts as cell-based. (HiBiT is a short tag that completes a luciferase, so light tracks the accessible tagged protein.)

In series [2] the test system is Protein cereblon/Leucine-rich repeat serine/threonine-protein kinase 2 (Homo sapiens), Q5S007+Q96SW2 [G2019S]. As to the kind of experiment: PROTAC activity at CRBN/LRRK2 G2019S mutant in HEK293 cells assessed as LRRK2 degradation by measuring maximum degradation by Nano-Glo dual-luciferase reporter assay relative to control. It is filed as cell-based. A general note: In a reporter assay the amount or activity of a reporter protein is the signal.

Series [3] addresses T1, Protein cereblon/Leucine-rich repeat serine/threonine-protein kinase 2. As to the kind of experiment: PROTAC activity at CRBN/wild type HiBit tagged-LRRK2 in HEK293 cells assessed as LRRK2 degradation by measuring maximum degradation by Nano-Glo dual-luciferase reporter assay relative to control. It is filed as cell-based.
The target in series [4] is Protein cereblon/Leucine-rich repeat serine/threonine-protein kinase 2 (Homo sapiens, UniProt Q5S007+Q96SW2, G2019S). Put plainly: PROTAC activity at CRBN/HiBit tagged-LRRK2 G2019S mutant in HEK293 cells assessed as LRRK2 degradation by Nano-Glo dual-luciferase reporter assay. It counts as cell-based.
For series [5], the target named is Leucine-rich repeat serine/threonine-protein kinase 2 (Homo sapiens, UniProt Q5S007). As to the kind of experiment: Inhibition of wild-type LRRK2 (unknown origin) by adapta assay.
Series [6] has as its target Leucine-rich repeat serine/threonine-protein kinase 2 (Homo sapiens, UniProt Q5S007, G2019S). As to the kind of experiment: Inhibition of LRRK2 G2019S mutant (unknown origin) by adapta assay.
Series [7] in a line: Oral bioavailability in mouse. It is filed as ADME, organism-based. As to conditions: in vivo.
For series [8], the target named is T2, von Hippel-Lindau disease tumor suppressor/Leucine-rich repeat serine/threonine-protein kinase 2 (Mus musculus, UniProt P40338+Q5S006, R1441C). Put plainly: PROTAC activity at VHL/LRRK2 R1441C mutant in mouse embryonic fibroblast cells assessed as induction of LRRK2 degradation. It counts as cell-based, MEF.
T2 sequence (P40338 whole entry, stated change not applied): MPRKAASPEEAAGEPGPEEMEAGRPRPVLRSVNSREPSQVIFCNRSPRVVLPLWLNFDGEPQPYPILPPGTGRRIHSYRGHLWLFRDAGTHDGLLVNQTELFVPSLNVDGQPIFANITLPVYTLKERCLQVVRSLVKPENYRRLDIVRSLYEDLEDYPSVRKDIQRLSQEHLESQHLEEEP
T2 sequence (Q5S006 whole entry R1441C, stated change not applied): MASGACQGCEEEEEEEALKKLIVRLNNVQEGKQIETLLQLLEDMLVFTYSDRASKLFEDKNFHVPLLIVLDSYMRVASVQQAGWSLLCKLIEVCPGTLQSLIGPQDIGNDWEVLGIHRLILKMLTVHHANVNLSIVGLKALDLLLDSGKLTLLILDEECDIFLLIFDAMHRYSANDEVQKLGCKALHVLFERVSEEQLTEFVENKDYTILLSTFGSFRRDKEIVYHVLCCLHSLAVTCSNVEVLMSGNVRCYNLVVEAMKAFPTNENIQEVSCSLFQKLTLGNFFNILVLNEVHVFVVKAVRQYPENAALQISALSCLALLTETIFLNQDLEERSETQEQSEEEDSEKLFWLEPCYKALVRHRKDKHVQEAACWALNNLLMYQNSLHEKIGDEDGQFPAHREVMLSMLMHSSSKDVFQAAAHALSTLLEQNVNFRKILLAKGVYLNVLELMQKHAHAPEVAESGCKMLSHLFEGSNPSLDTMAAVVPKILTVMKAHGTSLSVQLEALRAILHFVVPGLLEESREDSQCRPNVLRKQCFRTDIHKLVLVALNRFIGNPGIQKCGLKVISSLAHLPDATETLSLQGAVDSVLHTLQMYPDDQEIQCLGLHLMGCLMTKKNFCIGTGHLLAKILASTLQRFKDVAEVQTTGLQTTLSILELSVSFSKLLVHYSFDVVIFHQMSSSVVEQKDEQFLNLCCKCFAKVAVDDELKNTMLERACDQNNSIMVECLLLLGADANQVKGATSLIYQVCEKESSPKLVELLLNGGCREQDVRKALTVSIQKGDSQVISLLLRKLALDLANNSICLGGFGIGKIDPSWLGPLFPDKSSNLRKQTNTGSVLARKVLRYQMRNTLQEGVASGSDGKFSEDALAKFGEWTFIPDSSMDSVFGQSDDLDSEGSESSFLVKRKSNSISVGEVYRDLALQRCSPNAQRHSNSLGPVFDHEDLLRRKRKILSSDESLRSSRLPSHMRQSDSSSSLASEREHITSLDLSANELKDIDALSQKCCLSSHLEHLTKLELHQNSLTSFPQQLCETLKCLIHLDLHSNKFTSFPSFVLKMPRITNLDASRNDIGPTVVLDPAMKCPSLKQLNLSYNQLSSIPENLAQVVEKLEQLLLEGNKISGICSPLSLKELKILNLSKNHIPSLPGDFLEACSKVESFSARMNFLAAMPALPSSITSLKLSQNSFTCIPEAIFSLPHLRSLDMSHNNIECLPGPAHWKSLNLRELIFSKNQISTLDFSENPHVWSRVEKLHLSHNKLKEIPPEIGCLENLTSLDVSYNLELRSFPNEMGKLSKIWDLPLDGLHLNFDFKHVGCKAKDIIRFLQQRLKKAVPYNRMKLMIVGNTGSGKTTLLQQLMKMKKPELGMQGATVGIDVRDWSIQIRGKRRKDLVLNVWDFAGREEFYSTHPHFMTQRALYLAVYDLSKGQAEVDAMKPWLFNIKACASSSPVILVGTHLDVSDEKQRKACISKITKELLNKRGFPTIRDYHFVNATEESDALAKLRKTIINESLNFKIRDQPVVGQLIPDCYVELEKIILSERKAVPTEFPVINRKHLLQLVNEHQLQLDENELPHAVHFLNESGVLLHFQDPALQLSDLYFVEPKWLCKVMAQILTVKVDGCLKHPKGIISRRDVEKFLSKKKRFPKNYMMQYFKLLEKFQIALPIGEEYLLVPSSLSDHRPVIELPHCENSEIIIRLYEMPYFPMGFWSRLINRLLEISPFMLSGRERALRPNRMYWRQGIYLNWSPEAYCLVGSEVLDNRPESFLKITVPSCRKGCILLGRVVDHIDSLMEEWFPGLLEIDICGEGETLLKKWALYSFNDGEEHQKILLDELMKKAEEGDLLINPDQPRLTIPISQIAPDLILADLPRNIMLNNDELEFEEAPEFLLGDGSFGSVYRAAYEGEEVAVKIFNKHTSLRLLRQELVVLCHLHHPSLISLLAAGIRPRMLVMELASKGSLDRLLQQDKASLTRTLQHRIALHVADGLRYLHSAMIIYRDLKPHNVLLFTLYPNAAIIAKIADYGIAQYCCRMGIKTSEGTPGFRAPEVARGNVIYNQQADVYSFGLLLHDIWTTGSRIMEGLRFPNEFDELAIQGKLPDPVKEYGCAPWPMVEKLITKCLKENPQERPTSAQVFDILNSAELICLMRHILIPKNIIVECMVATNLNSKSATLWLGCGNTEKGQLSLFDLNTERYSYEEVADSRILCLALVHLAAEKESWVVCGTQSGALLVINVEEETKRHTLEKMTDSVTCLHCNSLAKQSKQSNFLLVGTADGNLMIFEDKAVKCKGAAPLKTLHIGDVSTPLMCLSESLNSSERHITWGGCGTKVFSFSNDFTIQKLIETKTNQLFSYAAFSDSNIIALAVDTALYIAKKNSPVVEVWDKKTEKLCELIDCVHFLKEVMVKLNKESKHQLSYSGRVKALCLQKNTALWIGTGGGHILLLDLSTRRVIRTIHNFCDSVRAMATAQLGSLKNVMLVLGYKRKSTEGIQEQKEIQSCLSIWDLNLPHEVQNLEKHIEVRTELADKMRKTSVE
In series [9] the test system is von Hippel-Lindau disease tumor suppressor/Leucine-rich repeat serine/threonine-protein kinase 2 (Mus musculus), Q5S006+P40338 [R1441C]. As to the kind of experiment: PROTAC activity at VHL/LRRK2 R1441C mutant in mouse PBMC cells assessed as induction of LRRK2 degradation by measuring half-life. It is filed as cell-based.
Series [10] has the same test system. Put plainly: PROTAC activity at VHL/LRRK2 R1441C mutant in mouse PBMC cells assessed as induction of LRRK2 degradation by measuring maximal efficacy relative to control. It is filed as cell-based.
The test system is the same in series [11]. Put plainly: PROTAC activity at VHL/LRRK2 R1441C mutant in mouse bone marrow derived macrophages assessed as induction of LRRK2 degradation by measuring maximal efficacy relative to control. It is filed as cell-based. As to conditions: BMDM.
For series [12], the target named is T2, von Hippel-Lindau disease tumor suppressor/Leucine-rich repeat serine/threonine-protein kinase 2. As to the kind of experiment: PROTAC activity at VHL/LRRK2 R1441C mutant in mouse PBMC cells assessed as induction of LRRK2 degradation. It counts as cell-based.
Series [13] has as its system von Hippel-Lindau disease tumor suppressor/Leucine-rich repeat serine/threonine-protein kinase 2 (Mus musculus), Q5S006+P40338 [R1441C]. Put plainly: PROTAC activity at VHL/LRRK2 R1441C mutant in mouse bone marrow derived macrophages assessed as induction of LRRK2 degradation by measuring half-life. It counts as cell-based. As to conditions: BMDM.
In series [14] the target is T2, von Hippel-Lindau disease tumor suppressor/Leucine-rich repeat serine/threonine-protein kinase 2. Put plainly: PROTAC activity at VHL/LRRK2 R1441C mutant in mouse bone marrow derived macrophages assessed as induction of LRRK2 degradation. It is filed as cell-based, BMDM.
In series [15] the test system is von Hippel-Lindau disease tumor suppressor/Leucine-rich repeat serine/threonine-protein kinase 2 (Mus musculus), Q5S006+P40338 [R1441C]. Put plainly: PROTAC activity at VHL/LRRK2 R1441C mutant in mouse embryonic fibroblast cells assessed as induction of LRRK2 degradation by measuring half-life. It counts as cell-based. As to conditions: MEF.
For series [16] the test system is unchanged. Put plainly: PROTAC activity at VHL/LRRK2 R1441C mutant in mouse embryonic fibroblast cells assessed as induction of LRRK2 degradation by measuring maximal efficacy relative to control. It counts as cell-based. The settings on record: MEF.

SMILES strings stand for the structures. A value given as a limit tells only on which side of the number the result lay.

What is called EC50 is the concentration at which the effect is half-maximal. By Emax is commonly meant the greatest response seen or fitted, relative to the assay's reference. For the compound `C[C@H]1CN(c2cc(-c3n[nH]c4ccc(OC5(C)CC5)cc34)ccn2)CCN1CCOCCOCCOCCOc1ccc2c(c1)C(=O)N(C1CCC(=O)NC1=O)C2=O` (stereo partly specified), the EC50 in series [1] and in series [4] was below 10 nM each time. In addition, the Emax in [2] and in series [3] was above 70% throughout.

The IC50 is the point on the concentration scale where inhibition reaches its midpoint. In the case of `CC1(Oc2ccc3[nH]nc(-c4cc(N5CCN(CCOCCOCCOCCOc6ccc7c(c6)C(=O)N(C6CCC(=O)NC6=O)C7=O)CC5)ncn4)c3c2)CC1` (stereo unspecified), the IC50 was found to be 1.46 nM in series [5] and 0.98 nM in [6].

The term bioavailability denotes the share of a dose that reaches the circulation, judged against a reference dose that is usually intravenous. A high value points to much systemic uptake. Turning to `CNc1nc(Nc2ccc(C(=O)N3CCN(C[C@H]4CC[C@H](CSC(C)(C)[C@H](NC(=O)C5(F)CC5)C(=O)N5C[C@@H](O)C[C@@H]5C(=O)NCc5ccc(-c6scnc6C)cc5)CC4)CC3)cc2OC)ncc1Cl`, the bioavailability in series [7] is 15%. For the same compound, the EC50 in series [8], in [12] and in series [14] was 15 nM throughout. Also, the T1/2 in [9], in series [13] and in series [15] was 36 min throughout. Moreover, the Emax in [10], in [11] and in series [16] was 82% in each case.
